How the values were obtained:
sigma-1 receptors = sigma-1 receptors (Homo sapiens, UniProt Q99720); assay: binding to sigma-1 receptors; conditions: read-out: median concentrations of binding (IC50) for sigma-1 receptors
sigma-2 receptors = sigma-2 receptors (Homo sapiens, UniProt Q5BJF2); assay: binding to sigma-2 receptors; conditions: read-out: median concentrations of binding (IC50) for sigma-2 receptors
[1] = tested on: site-2 of the sodium channels; assay: affinity for site-2 of the sodium channels; format: binding
[2] = antagonism of pentylenetetrazole (PTZ) lethality in mice; format: in vivo; conditions: PTZ 130 mg/kg ip, DPPA 3 mg/kg po
Description: (§1) More important- at lower doses: 0,01 to 1,00 mg/kg, intraperitoneal (ip) in mice—the cytoprotective activity of DPPA obtained by antagonism of the endoplasmic reticulum stress (ER stress) and amelioration of the cytoprotective autophagic processus of the cells and, more specifically, of neurons (in the neurodegenerative diseases and eldery). […] These cytoprotective activities of DPPA were completed, specifically in neurons, by inhibiting their entry in the cell cycle, as this entry is always fatal for neurons. In contrast, concerning the cancer cells, the above inhibition triggered the apoptotic processus and their death.

[3] = tested on: mitochondrial toxicity of pentylenetetrazole (PTZ); assay: as above; format: in vivo; conditions: PTZ 130 mg/kg ip
Description: as §1

[4] = tested on: Paclitaxel-induced neuropathic pain; assay: neuropathic pain by sensibilisation with Paclitaxel, formalin injection in hind paw; format: in vivo; conditions: po, mice
Description: Finally, in the experimental protocol of neuropathic pain by sensibilisation with Paclitaxel and evaluation of the neuropathic pain by injection of formalin in the hind paw of mice, the analgesic effect of DPPA was significative from 1.0 mg/kg (po) and was spectacular at higher doses (25 to 75 mg/kg, po). Indeed, the Paclitaxel+DPPA treated mice were less sensible to formalin than the control mice not treated with Paclitaxel.

[5] = tested on: scopolamine induced amnesia; assay: scopolamine induced amnesia; format: in vivo; conditions: mice
[6] = tested on: dizocilpine induced amnesia; assay: dizocilpine induced amnesia; format: in vivo; conditions: mice
Aβ25-35 induced amnesia = assay: amyloid Aβ25-35 induced amnesia (Y-maze and step-through); format: in vivo, mice
Source text: Indeed, concerning the cytodegenerative diseases and more specifically the neurodegenerative diseases (Alzheimer, Huntington, Parkinson or Multiple Sclerosis), DPPA, in contrast to the symptomatic treatments used currently against the above diseases, antagonizes their pathophysiological causes ie., the endocellular biochemical stress and, concerning the neurons, also their fatal entry in the cell cycle. Of particular interest was the action of DPPA when it was coadministered with the inhibitors of the acetylcholinesterases (IAChEases) which are used as symptomatic drugs (principally Rivastigmine, Donepezil and Galantamine) against the Alzheimer's Disease (AD). […] Indeed, DPPA, via its antagonistic action on the M2 muscatinic autoreceptors of the brain cholinergic neurons (M2[−]), abolished the pro-neurodegenerative agonistic activity of the IAChEases on the hyperactivated (by AD or by the soluble Aβ25-35) cerebral M2 muscarinic autoreceptors, originating a new pharmacological approach (M2[−]) and (σ1[+]) against the neurodegenerative effects of Aβ25-35 in AD and also against the deleterious effect of the agonistic action of IAChEases on the M2 muscarinic brain autoreceptors, validating these drugs (IAChEases) as putative therapeutic agents against AD.

[7] = tested on: colon, prostate, ovarian, pancreas and hepatic cancer cells; assay: in vitro anticancer activity; format: cell-based
cancer cells = assay: anticancer activity in vitro and in vivo by inoculation of cancer cells in SCID mice; set-up: species or system immunosuppressed SCID mice
Source text: The anticancer activity of DPPA was studied in vitro and in vivo by inoculation of cancer cells in immunosuppressed SCID mice. […] Moreover, even when the neuropathic pain, induced by the anticancer drugs was installed, DPPA antagonized it, by inhibition of the hypersensitive neurons injured by the neurotoxicity of the above anticancer drugs.

M2 muscarinic receptors = target: T1, M2 muscarinic receptors (Mus musculus, UniProt Q9ERZ4); assay: peripheral M2 muscarinic antagonism in mice; format: in vivo; conditions: 0.1 to 10 mg/kg, ip
T1 construct: from tissue; host or cells: living mice, peripheral tissues
T1 sequence (Q9ERZ4 1-466): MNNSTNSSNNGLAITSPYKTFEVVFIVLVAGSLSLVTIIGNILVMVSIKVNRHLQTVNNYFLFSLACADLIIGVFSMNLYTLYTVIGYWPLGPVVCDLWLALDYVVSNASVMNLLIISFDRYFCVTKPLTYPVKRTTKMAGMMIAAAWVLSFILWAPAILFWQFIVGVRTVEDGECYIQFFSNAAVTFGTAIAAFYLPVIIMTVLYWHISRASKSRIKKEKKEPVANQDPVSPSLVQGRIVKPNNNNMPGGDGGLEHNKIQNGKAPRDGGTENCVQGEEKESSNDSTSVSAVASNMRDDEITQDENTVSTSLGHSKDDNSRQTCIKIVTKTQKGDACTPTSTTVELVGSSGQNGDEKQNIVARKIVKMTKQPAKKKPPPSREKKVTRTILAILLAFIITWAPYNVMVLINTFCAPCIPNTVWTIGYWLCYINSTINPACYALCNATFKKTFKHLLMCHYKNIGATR

M3 muscarinic receptors = target: T2, M3 muscarinic receptors (Mus musculus, UniProt Q9ERZ3); assay: peripheral M3 muscarinic antagonism in mice; format: in vivo; conditions: 0.1 to 10 mg/kg, ip
T2 construct: from tissue; host or cells: living mice, peripheral tissues
T2 sequence (Q9ERZ3 whole entry): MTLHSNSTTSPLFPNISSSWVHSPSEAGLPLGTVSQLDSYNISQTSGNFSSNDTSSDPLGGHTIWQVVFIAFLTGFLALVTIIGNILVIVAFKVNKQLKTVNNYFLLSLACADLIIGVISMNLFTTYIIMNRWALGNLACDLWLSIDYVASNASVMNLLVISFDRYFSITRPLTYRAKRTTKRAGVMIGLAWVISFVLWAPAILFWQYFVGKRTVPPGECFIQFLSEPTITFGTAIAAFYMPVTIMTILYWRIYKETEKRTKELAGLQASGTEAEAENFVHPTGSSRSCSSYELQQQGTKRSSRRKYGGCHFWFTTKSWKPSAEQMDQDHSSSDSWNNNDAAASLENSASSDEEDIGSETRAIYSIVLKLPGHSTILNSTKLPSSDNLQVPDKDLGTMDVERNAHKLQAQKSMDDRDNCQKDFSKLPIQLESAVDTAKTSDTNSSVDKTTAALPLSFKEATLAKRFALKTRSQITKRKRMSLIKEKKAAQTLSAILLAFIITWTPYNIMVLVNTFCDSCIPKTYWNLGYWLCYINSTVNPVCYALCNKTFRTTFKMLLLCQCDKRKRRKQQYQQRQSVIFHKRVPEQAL

[8] = tested on: immobility in forced swimming; conditions: po, mice, Porsolt; cited from earlier work

sigma-2 receptors, sequence (Q5BJF2 whole entry): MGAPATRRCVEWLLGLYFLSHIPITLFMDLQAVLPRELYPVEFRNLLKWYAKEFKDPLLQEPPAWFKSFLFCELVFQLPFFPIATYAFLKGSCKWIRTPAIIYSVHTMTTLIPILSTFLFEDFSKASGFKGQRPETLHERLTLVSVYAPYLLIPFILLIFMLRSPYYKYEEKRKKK
sigma-1 receptors, sequence (Q99720 whole entry): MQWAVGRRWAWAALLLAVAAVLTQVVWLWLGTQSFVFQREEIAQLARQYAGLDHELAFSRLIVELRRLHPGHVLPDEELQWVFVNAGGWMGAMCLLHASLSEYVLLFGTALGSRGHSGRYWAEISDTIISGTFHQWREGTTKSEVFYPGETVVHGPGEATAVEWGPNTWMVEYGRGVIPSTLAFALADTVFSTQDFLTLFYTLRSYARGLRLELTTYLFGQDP

**Q.** What does the source list for CC(NCCC(c1ccccc1)c1ccccc1)c1ccccc1 (centres unmarked) [DPPA, 3,3-diphenyl-N-(1-phenylethyl) propan-1-amine]?
**A.** IC50 (sigma-1 receptors): 14 to 18 nM; IC50 (sigma-2 receptors): 730 to 850 nM; IC50 [1]: 290 nM; increase of the latency of lethality of PTZ [2]: 5 fold; increase of the latency of lethality of PTZ ([3]; DPPA 10 mg/kg po): 10 fold; increase of the latency of lethality of PTZ ([3]; DPPA 30 mg/kg po): 20 fold; analgesic effect at higher doses ([4]; 25 to 75 mg/kg): spectacular; dose from which the analgesic effect was significative ([4]; Paclitaxel sensibilisation, formalin in hind paw): ≥ 1.0 mg/kg; antagonism of scopolamine induced amnesia [5]: antagonism; antagonism of dizocilpine induced amnesia [6]: antagonism; antiamnesic action on coadministration with IAChEases (Rivastigmine or Donepezil) (Aβ25-35 induced amnesia; intracerebral soluble Aβ25-35, mice, Y-maze and step-through): higher than the sum of the antiamnesic effects of DPPA and IAChEases; antagonism of amyloids Aβ25-35 induced amnesia (Aβ25-35 induced amnesia; mice): antagonism; anticancer activity on cancer cells in vitro [7]: demonstrated the anticancer activity; anticancer activity versus clinically used anticancer drugs (cancer cells): lower than those of the clinically used anticancer drugs; effects on M2 muscarinic receptors in the periphery (M2 muscarinic receptors): antagonistic effects; effects on M3 muscarinic receptors in the periphery (M3 muscarinic receptors): antagonistic effects; dose at which anti-immobility properties are significative [8]: more than 10 mg/kg

Reference: patent US20150126611A1, “3,3-DIPHENYL-N-(1-PHENYLETHYL) PROPAN-1-AMINE: AS A NEW SELECTIVE LIGAND OF THE SIGMA-1 RECEPTORS, WITH ANTI-APOPTOTIC (CYTOPROTECTIVE) PROPERTIES AND PROTOTYPICAL ANTICANCER ACTIVITY” (priority 2012, published 2015)
